Laboratory results from PubChem BioAssay AID1963829 (Molecular Pharmacology Branch, DTP, NCI, 2024).

System: 935938-334-R-J1-PDC complex spheroid viability
Assay: Anticancer human tumor 935938-334-R-J1-PDC patient-derived small intestine adenocarcinoma cell line growth inhibition [POLQ]
Details: for IC50: curve of first compound; for viability, T/C: stronger effect = lower value
Method in brief: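 Complex spheroid viability model combining PDC tumour cells with endothelial (HUVEC) and MSC stromal cells. Novobiocin, ART-558 or RP6685 were tested singly and in combination with standard and investigational anticancer drugs. Each was titrated in half-log steps from near clinical Cmax, or from 10 microM where Cmax was unknown.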

[1] = second compound 0.0316 µM, first compound 0.0316 µM
[2] = second compound 0.0316 µM, first compound 0.1 µM
[3] = second compound 0.0316 µM, first compound 0.316 µM
[4] = second compound 0.0316 µM, first compound 1 µM
[5] = second compound 0.0316 µM, first compound 3.16 µM
[6] = second compound 0.0316 µM, first compound 10 µM
[7] = second compound 0.1 µM, first compound 0.0316 µM
[8] = second compound 0.1 µM, first compound 0.1 µM
[9] = second compound 0.1 µM, first compound 0.316 µM
[10] = second compound 0.1 µM, first compound 1 µM
[11] = second compound 0.1 µM, first compound 3.16 µM
[12] = second compound 0.1 µM, first compound 10 µM
[13] = second compound 0.316 µM, first compound 0.0316 µM
[14] = second compound 0.316 µM, first compound 0.1 µM
[15] = second compound 0.316 µM, first compound 0.316 µM
[16] = second compound 0.316 µM, first compound 1 µM
[17] = second compound 0.316 µM, first compound 3.16 µM
[18] = second compound 0.316 µM, first compound 10 µM
[19] = second compound 1 µM, first compound 0.0316 µM
[20] = second compound 1 µM, first compound 0.1 µM
[21] = second compound 1 µM, first compound 0.316 µM
[22] = second compound 1 µM, first compound 1 µM
[23] = second compound 1 µM, first compound 3.16 µM
[24] = second compound 1 µM, first compound 10 µM
[25] = second compound 3.16 µM, first compound 0.0316 µM
[26] = second compound 3.16 µM, first compound 0.1 µM
[27] = second compound 3.16 µM, first compound 0.316 µM
[28] = second compound 3.16 µM, first compound 1 µM
[29] = second compound 3.16 µM, first compound 3.16 µM
[30] = second compound 3.16 µM, first compound 10 µM
[31] = second compound 10 µM, first compound 0.0316 µM
[32] = second compound 10 µM, first compound 0.1 µM
[33] = second compound 10 µM, first compound 0.316 µM
[34] = second compound 10 µM, first compound 1 µM
[35] = second compound 10 µM, first compound 3.16 µM
[36] = second compound 10 µM, first compound 10 µM
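Further: spheroids exposed to drugs for seven days before viability read.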
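Wherever viability, T/C is given: 100% = DMSO vehicle control wells.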

Structure (SMILES): C=CC(=O)N1CCN(c2nc(=O)n(-c3c(C)ccnc3C(C)C)c3nc(-c4c(O)cccc4F)c(F)cc23)C(C)C1 (centres undefined) + Nc1ccc(C#CCN(C(=O)Cc2ncc(C(F)(F)F)cc2C(F)(F)F)c2ccc(F)cc2)nn1
- IC50 (second compound 0.0316 µM): > 10 µM
- IC50 (second compound 0.1 µM): > 10 µM
- IC50 (second compound 0.316 µM): > 10 µM
- IC50 (second compound 1 µM): > 10 µM
- IC50 (second compound 3.16 µM): > 10 µM
- IC50 (second compound 10 µM): > 10 µM
- viability, T/C [1]: 99.1%
- viability, T/C [2]: 111%
- viability, T/C [3]: 87.1%
- viability, T/C [4]: 128%
- viability, T/C [5]: 125%
- viability, T/C [6]: 112%
- viability, T/C [7]: 90.7%
- viability, T/C [8]: 99.5%
- viability, T/C [9]: 91.2%
- viability, T/C [10]: 138%
- viability, T/C [11]: 122%
- viability, T/C [12]: 107%
- viability, T/C [13]: 106%
- viability, T/C [14]: 106%
- viability, T/C [15]: 87.3%
- viability, T/C [16]: 94.8%
- viability, T/C [17]: 128%
- viability, T/C [18]: 87.4%
- viability, T/C [19]: 91.4%
- viability, T/C [20]: 96.9%
- viability, T/C [21]: 98.4%
- viability, T/C [22]: 134%
- viability, T/C [23]: 115%
- viability, T/C [24]: 138%
- viability, T/C [25]: 85.1%
- viability, T/C [26]: 89.9%
- viability, T/C [27]: 114%
- viability, T/C [28]: 95.9%
- viability, T/C [29]: 183%
- viability, T/C [30]: 113%
- viability, T/C [31]: 88.2%
- viability, T/C [32]: 95.8%
- viability, T/C [33]: 116%
- viability, T/C [34]: 89.3%
- viability, T/C [35]: 119%
- viability, T/C [36]: 138%

Structure (SMILES): CCc1cc2c(N3CCc4c(cc(Cn5ccnc5)cc4-c4cn(C)nc4C(F)(F)F)C3=O)ccnc2c(OC)n1 + Nc1ccc(C#CCN(C(=O)Cc2ncc(C(F)(F)F)cc2C(F)(F)F)c2ccc(F)cc2)nn1
- IC50 (second compound 0.0316 µM): > 10 µM
- IC50 (second compound 0.1 µM): > 10 µM
- IC50 (second compound 0.316 µM): > 10 µM
- IC50 (second compound 1 µM): > 10 µM
- IC50 (second compound 3.16 µM): > 10 µM
- IC50 (second compound 10 µM): > 10 µM
- viability, T/C [1]: 79.9%
- viability, T/C [2]: 57.4%
- viability, T/C [3]: 52.4%
- viability, T/C [4]: 70.4%
- viability, T/C [5]: 59.1%
- viability, T/C [6]: 60.8%
- viability, T/C [7]: 88.2%
- viability, T/C [8]: 68%
- viability, T/C [9]: 64.5%
- viability, T/C [10]: 57.4%
- viability, T/C [11]: 70%
- viability, T/C [12]: 60.7%
- viability, T/C [13]: 88.8%
- viability, T/C [14]: 66%
- viability, T/C [15]: 67.9%
- viability, T/C [16]: 63.5%
- viability, T/C [17]: 63.5%
- viability, T/C [18]: 61.7%
- viability, T/C [19]: 91.2%
- viability, T/C [20]: 67.1%
- viability, T/C [21]: 82.7%
- viability, T/C [22]: 70.5%
- viability, T/C [23]: 59.5%
- viability, T/C [24]: 64.4%
- viability, T/C [25]: 90.6%
- viability, T/C [26]: 97.6%
- viability, T/C [27]: 70.3%
- viability, T/C [28]: 64.6%
- viability, T/C [29]: 72.5%
- viability, T/C [30]: 60.2%
- viability, T/C [31]: 80.7%
- viability, T/C [32]: 82.2%
- viability, T/C [33]: 85.5%
- viability, T/C [34]: 64.3%
- viability, T/C [35]: 56.7%
- viability, T/C [36]: 66.9%
